Laboratory results taken from patent US20050197350A1, “Novel quinoline, tetrahydroquinazoline, and pyrimidine derivatives and methods of treatment related to the use thereof” (TAISHO PHARMACEUTICAL CO., LTD., priority 2003, published 2005).

The compounds below were run on MCH receptors (assay: MCH receptor activity class (method not given)). Settings: activity class 1-3: percent of control at 10^-7 M or IC50.

| Compound | class |
| --- | --- |
| COC(CN[C@H]1CC[C@@H](Nc2nccc(N(C)C)n2)CC1)c1ccccc1 (relative stereo) [compound 1516] | 3 (Class 3 The value of percent of control at 10^−7 M was more than 60% or the value of IC50 was more than 200 nM.) |
| CCOC(=O)[C@H](CC(C)C)NC(=O)N[C@H]1CC[C@@H](Nc2nc3c(c(N(C)C)n2)CCCC3)CC1 (relative stereo) [compound 1663] | 3 (Class 3 The value of percent of control at 10^−7 M was more than 60% or the value of IC50 was more than 200 nM.) |

Same assay, conditions: activity class per percent of control at 10^-7 M or IC50

| Compound | class |
| --- | --- |
| CN(C)c1nc(N[C@H]2CC[C@@H](NC(=O)[C@H](CCCCNC(=O)c3ccccc3)NC(=O)c3ccccc3)CC2)nc2c1CCCC2 (relative stereo) [compound 980] | 2 (Class 2: The value of percent of control at 10^−7 M was from 40% to 60% or the value of IC′50 was from 50 nM to 200 nM.) |
| CC(C(=O)N[C@H]1CC[C@@H](Nc2nc3c(c(N(C)C)n2)CCCC3)CC1)c1ccc(-c2ccccc2)c(F)c1 (relative stereo) [compound 984] | 2 (Class 2: The value of percent of control at 10^−7 M was from 40% to 60% or the value of IC′50 was from 50 nM to 200 nM.) |
| COc1ccc2c(c1)C(CC(=O)N[C@H]1CC[C@@H](Nc3nc4c(c(N(C)C)n3)CCCC4)CC1)CC2=O (relative stereo) [compound 988] | 3 (Class 3 The value of percent of control at 10^−7 M was more than 60% or the value of IC50 was more than 200 nM.) |
| CN(C)c1nc(N[C@H]2CC[C@@H](NC(=O)C(CC(=O)c3ccccc3)c3c[nH]c4ccccc34)CC2)nc2c1CCCC2 (relative stereo) [compound 991] | 2 (Class 2: The value of percent of control at 10^−7 M was from 40% to 60% or the value of IC′50 was from 50 nM to 200 nM.) |
| CN(C)c1nc(N[C@H]2CC[C@@H](NC(=O)C(CC(=O)c3ccc(Br)cc3)c3c[nH]c4ccccc34)CC2)nc2c1CCCC2 (relative stereo) [compound 992] | 3 (Class 3 The value of percent of control at 10^−7 M was more than 60% or the value of IC50 was more than 200 nM.) |
| CCc1cccc2c(C(CC(=O)c3ccc(C(C)(C)C)cc3)C(=O)N[C@H]3CC[C@@H](Nc4nc5c(c(N(C)C)n4)CCCC5)CC3)c[nH]c12 (relative stereo) [compound 996] | 1 (Class 1: The value of percent of control at 10^−7 M was less than 40% or the value of IC50 was less than 50 nM.) |
| CN(C)c1nc(N[C@H]2CC[C@@H](NC(=O)C(CC(=O)c3ccc(C(C)(C)C)cc3)c3cn(C)c4ccccc34)CC2)nc2c1CCCC2 (relative stereo) [compound 997] | 3 (Class 3 The value of percent of control at 10^−7 M was more than 60% or the value of IC50 was more than 200 nM.) |
| Cc1ccc(C(=O)CC(C(=O)N[C@H]2CC[C@@H](Nc3nc4c(c(N(C)C)n3)CCCC4)CC2)c2cn(C)c3ccccc23)cc1 (relative stereo) [compound 998] | 2 (Class 2: The value of percent of control at 10^−7 M was from 40% to 60% or the value of IC′50 was from 50 nM to 200 nM.) |
| CCCN(CCC)C(=O)[C@H](CCC(=O)N[C@H]1CC[C@@H](Nc2nc3c(c(N(C)C)n2)CCCC3)CC1)NC(=O)c1ccccc1 (relative stereo) [compound 1006] | 1 (Class 1: The value of percent of control at 10^−7 M was less than 40% or the value of IC50 was less than 50 nM.) |
| CN(C)c1nc(N[C@H]2CC[C@@H](NC(=O)C(CC(=O)c3ccc(Cl)cc3)SCc3ccc(Cl)cc3)CC2)nc2c1CCCC2 (relative stereo) [compound 1017] | 3 (Class 3 The value of percent of control at 10^−7 M was more than 60% or the value of IC50 was more than 200 nM.) |
| Cc1ccc(C(=O)CC(SCc2ccc(Cl)cc2)C(=O)N[C@H]2CC[C@@H](Nc3nc4c(c(N(C)C)n3)CCCC4)CC2)cc1 (relative stereo) [compound 1018] | 2 (Class 2: The value of percent of control at 10^−7 M was from 40% to 60% or the value of IC′50 was from 50 nM to 200 nM.) |
| CC1=C(CC(=O)N[C@H]2CC[C@@H](Nc3nc4c(c(N(C)C)n3)CCCC4)CC2)c2cc(F)ccc2/C1=C/c1ccc([S+](C)[O-])cc1 (relative stereo) [compound 1019] | 1 (Class 1: The value of percent of control at 10^−7 M was less than 40% or the value of IC50 was less than 50 nM.) |
| CC(C(=O)N[C@H]1CC[C@@H](Nc2nc3c(c(N(C)C)n2)CCCC3)CC1)c1ccc(C(=O)c2cccs2)cc1 (relative stereo) [compound 1020] | 2 (Class 2: The value of percent of control at 10^−7 M was from 40% to 60% or the value of IC′50 was from 50 nM to 200 nM.) |
| COC(C(=O)N[C@H]1CC[C@@H](Nc2nc3c(c(N(C)C)n2)CCCC3)CC1)c1ccccc1 (relative stereo) [compound 1052] | 2 (Class 2: The value of percent of control at 10^−7 M was from 40% to 60% or the value of IC′50 was from 50 nM to 200 nM.) |
| CN(C)c1nc(N[C@H]2CC[C@@H](NC(=O)C3CCc4ccccc4C3)CC2)nc2c1CCCC2 (relative stereo) [compound 1053] | 3 (Class 3 The value of percent of control at 10^−7 M was more than 60% or the value of IC50 was more than 200 nM.) |
| CN(C)c1nc(N[C@H]2CC[C@@H](CNC(=O)C(Cc3ccccc3)c3ccccc3)CC2)nc2c1CCCC2 (relative stereo) [compound 1066] | 3 (Class 3 The value of percent of control at 10^−7 M was more than 60% or the value of IC50 was more than 200 nM.) |
| CN(C)c1nc(N[C@H]2CC[C@@H](CNC(=O)C3CC(=O)c4ccccc43)CC2)nc2c1CCCC2 (relative stereo) [compound 1071] | 3 (Class 3 The value of percent of control at 10^−7 M was more than 60% or the value of IC50 was more than 200 nM.) |
| CCOc1ccc(C(=O)CC(C(=O)NC[C@H]2CC[C@@H](Nc3nc4c(c(N(C)C)n3)CCCC4)CC2)C2C(=O)N(c3ccccc3)N=C2C)cc1 (relative stereo) [compound 1080] | 3 (Class 3 The value of percent of control at 10^−7 M was more than 60% or the value of IC50 was more than 200 nM.) |
| CC(CCN[C@H]1CC[C@@H](Nc2cc(N(C)C)c3ccccc3n2)CC1)c1ccccc1 (relative stereo) [compound 1106] | 3 (Class 3 The value of percent of control at 10^−7 M was more than 60% or the value of IC50 was more than 200 nM.) |

Same assay, conditions: class by percent of control at 10^-7 M or IC50

| Compound | class |
| --- | --- |
| CC1=C(CC(=O)N[C@H]2CC[C@@H](Nc3nccc(N(C)C)n3)CC2)c2cc(F)ccc2/C1=C/c1ccc([S+](C)[O-])cc1 (relative stereo) [compound 883, N-(cis-4-{[4-(dimethylamino)pyrimidin-2-yl]amino}cyclohexyl)-2-{(1E)-5-fluoro-2-methyl-1-[4-(methylsulfinyl)benzylidene]-1H-inden-3-yl}acetamide] | 2 (Class 2: The value of percent of control at 10^−7 M was from 40% to 60% or the value of IC′50 was from 50 nM to 200 nM.) |
| CC(C(=O)N[C@H]1CC[C@@H](Nc2nccc(N(C)C)n2)CC1)c1ccc(C(=O)c2cccs2)cc1 (relative stereo) [compound 884, N-(cis-4-{[4-(dimethylamino)pyrimidin-2-yl]amino}cyclohexyl)-2-[4-(2-thienylcarbonyl)phenyl]propanamide] | 2 (Class 2: The value of percent of control at 10^−7 M was from 40% to 60% or the value of IC′50 was from 50 nM to 200 nM.) |
| COC(C(=O)N[C@H]1CC[C@@H](Nc2nccc(N(C)C)n2)CC1)c1ccccc1 (relative stereo) [compound 916] | 3 (Class 3 The value of percent of control at 10^−7 M was more than 60% or the value of IC50 was more than 200 nM.) |
| CN(C)c1ccnc(N[C@H]2CC[C@@H](NC(=O)C3CCc4ccccc4C3)CC2)n1 (relative stereo) [compound 917] | 3 (Class 3 The value of percent of control at 10^−7 M was more than 60% or the value of IC50 was more than 200 nM.) |
| CN(C)c1ccnc(N[C@H]2CC[C@@H](CNC(=O)C(Cc3ccccc3)c3ccccc3)CC2)n1 (relative stereo) [compound 930, N-[(cis-4-{[4-(dimethylamino)pyrimidin-2-yl]amino}cyclohexyl)methyl]-2,3-diphenylpropanamide] | 2 (Class 2: The value of percent of control at 10^−7 M was from 40% to 60% or the value of IC′50 was from 50 nM to 200 nM.) |
| CN(C)c1ccnc(N[C@H]2CC[C@@H](CNC(=O)C3CC(=O)c4ccccc43)CC2)n1 (relative stereo) [compound 935, N-[(cis-4-{[4-(dimethylamino)pyrimidin-2-yl]amino}cyclohexyl)methyl]-3-oxoindane-1-carboxamide] | 1 (Class 1: The value of percent of control at 10^−7 M was less than 40% or the value of IC50 was less than 50 nM.) |
| CCOc1ccc(C(=O)CC(C(=O)NC[C@H]2CC[C@@H](Nc3nccc(N(C)C)n3)CC2)C2C(=O)N(c3ccccc3)N=C2C)cc1 (relative stereo) [compound 944] | 3 (Class 3 The value of percent of control at 10^−7 M was more than 60% or the value of IC50 was more than 200 nM.) |
| CN(C)c1nc(N[C@H]2CC[C@@H](NC(=O)C(Cc3ccccc3)c3ccccc3)CC2)nc2c1CCCC2 (relative stereo) [compound 954] | 2 (Class 2: The value of percent of control at 10^−7 M was from 40% to 60% or the value of IC′50 was from 50 nM to 200 nM.) |
| CN(C)c1nc(N[C@H]2CC[C@@H](NC(=O)C3CC(=O)c4ccccc43)CC2)nc2c1CCCC2 (relative stereo) [compound 960] | 2 (Class 2: The value of percent of control at 10^−7 M was from 40% to 60% or the value of IC′50 was from 50 nM to 200 nM.) |
| CC(CCN[C@H]1CC[C@@H](Nc2nccc(N(C)C)n2)CC1)c1ccccc1 (relative stereo) [compound 1226] | 3 (Class 3 The value of percent of control at 10^−7 M was more than 60% or the value of IC50 was more than 200 nM.) |
| CC(CN[C@H]1CC[C@@H](Nc2nccc(N(C)C)n2)CC1)c1ccccc1 (relative stereo) [compound 1231] | 3 (Class 3 The value of percent of control at 10^−7 M was more than 60% or the value of IC50 was more than 200 nM.) |
| CC(CN[C@H]1CC[C@@H](Nc2nc3c(c(N(C)C)n2)CCCC3)CC1)c1ccccc1 (relative stereo) [compound 1352] | 3 (Class 3 The value of percent of control at 10^−7 M was more than 60% or the value of IC50 was more than 200 nM.) |
| COC(CN[C@H]1CC[C@@H](Nc2cc(N(C)C)c3ccccc3n2)CC1)c1ccccc1 (relative stereo) [compound 1450] | 3 (Class 3 The value of percent of control at 10^−7 M was more than 60% or the value of IC50 was more than 200 nM.) |
